Measurements from PubChem BioAssay AID248 (DTP/NCI, 2004).
Where “and” joins values, the source holds several entries; their conditions need not be identical. Equal values may be shown once. Inconclusive results and toxic doses are left out. Rule as the data show it: active = T/C of 150% or more; inactive = T/C below 125%.

System: L1210 leukemia ip in BDF1 mice, survival T/C
Test: NCI In Vivo Anticancer Drug Screen. Data for tumor model L1210 Leukemia (intraperitoneal) in B6D2F1 (BDF1) mice
Conditions: endpoint: mean survival time, higher = longer survival
Outline: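 Antitumor effect is assessed in tumor-bearing animals. Survival in the compound arm is compared with a vehicle-dosed control arm and expressed as their quotient.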

[1] = dose: 100.0 mg/kg/injection, schedule: Q04DX002 (ip), vehicle: Klucel (hydroxypropylcellulose) (HPC)
[2] = dose: 200.0 mg/kg/injection, schedule: Q04DX002 (ip), vehicle: Klucel (hydroxypropylcellulose) (HPC)
[3] = dose: 400.0 mg/kg/injection, schedule: Q04DX002 (ip), vehicle: Klucel (hydroxypropylcellulose) (HPC)
[4] = dose: 100.0 mg/kg/injection, schedule: Q01DX001 (ip), vehicle: saline
[5] = dose: 200.0 mg/kg/injection, schedule: Q01DX001 (ip), vehicle: saline
[6] = dose: 400.0 mg/kg/injection, schedule: Q01DX001 (ip), vehicle: saline
[7] = dose: 100.0 mg/kg/injection, schedule: Q01DX001 (ip), vehicle: other
[8] = dose: 200.0 mg/kg/injection, schedule: Q01DX001 (ip), vehicle: other
[9] = dose: 400.0 mg/kg/injection, schedule: Q01DX001 (ip), vehicle: other
[10] = dose: 100.0 mg/kg/injection, schedule: Q04DX003 (ip), vehicle: saline with Tween-80
[11] = dose: 200.0 mg/kg/injection, schedule: Q04DX003 (ip), vehicle: saline with Tween-80
[12] = dose: 100.0 mg/kg/injection, schedule: Q01DX009 (ip), vehicle: Klucel (hydroxypropylcellulose) (HPC)
[13] = dose: 200.0 mg/kg/injection, schedule: Q01DX009 (ip), vehicle: Klucel (hydroxypropylcellulose) (HPC)
[14] = dose: 400.0 mg/kg/injection, schedule: Q01DX009 (ip), vehicle: Klucel (hydroxypropylcellulose) (HPC)

Measured: T/C

Nc1[nH]c(=S)[nH]c(=O)c1NC=O
inactive: dose: 16.0 mg/kg/injection, schedule: Q01DX Z (ip), vehicle: methylcellulose (MC) 103 % of control | dose: 31.0 mg/kg/injection, schedule: Q01DX Z (ip), vehicle: methylcellulose (MC) 106 % of control | dose: 62.0 mg/kg/injection, schedule: Q01DX Z (ip), vehicle: methylcellulose (MC) 108 % of control | dose: 125.0 mg/kg/injection, schedule: Q01DX Z (ip), vehicle: methylcellulose (MC) 96 % of control and 97 % of control | dose: 250.0 mg/kg/injection, schedule: Q01DX Z (ip), vehicle: methylcellulose (MC) 100 % of control | dose: 500.0 mg/kg/injection, schedule: Q01DX Z (ip), vehicle: methylcellulose (MC) 112 % of control

Cc1ccc([N+](=O)[O-])cc1NC(=O)NC(=O)c1ccccc1
inactive: [1] 92 % of control | [2] 95 % of control | [3] 97 % of control

CN(C)CC(=O)c1c[nH]c(=O)[nH]c1=O
inactive: dose: 100.0 mg/kg/injection, schedule: Q01DX009 (ip), vehicle: saline with Tween-80 112 % of control | dose: 200.0 mg/kg/injection, schedule: Q01DX009 (ip), vehicle: saline with Tween-80 94 % of control | dose: 400.0 mg/kg/injection, schedule: Q01DX009 (ip), vehicle: saline with Tween-80 102 % of control

CC(C)(CN=Cc1ccccc1[O-])N=Cc1ccccc1[O-].[O]=[V]
inactive: dose: 50.0 mg/kg/injection, schedule: Q01DX009 (ip), vehicle: saline with Tween-80 98 % of control

CN(C)c1ccc(C=Nc2ccc([N+](=O)[O-])cc2O)cc1
inactive: [4] 97 % of control | [5] 95 % of control | [6] 92 % of control

CCC/C(=N\NC(N)=O)C(OC)OC
inactive: [7] 94 % of control | [8] 105 % of control | [9] 92 % of control

C[NH-].C[NH-].C[NH-].[Cl][Rh]([Cl])[Cl]
inactive: dose: 25.0 mg/kg/injection, schedule: Q04DX003 (ip), vehicle: saline 96 % of control | dose: 50.0 mg/kg/injection, schedule: Q04DX003 (ip), vehicle: saline 96 % of control | dose: 100.0 mg/kg/injection, schedule: Q04DX003 (ip), vehicle: saline 96 % of control

C#CCn1c(=O)c2c(ncn2C)n(C)c1=O
inactive: dose: 6.25 mg/kg/injection, schedule: Q04DX003 (ip), vehicle: saline 100 % of control

Cc1cnc(N/N=C/c2ccccc2)nc1-c1ccccc1O
inactive: [1] 103 % of control | [2] 100 % of control | [3] 92 % of control

CNc1ccccc1CO
inactive: dose: 100.0 mg/kg/injection, schedule: Q04DX003 (ip), vehicle: other 95 % of control | dose: 200.0 mg/kg/injection, schedule: Q04DX003 (ip), vehicle: other 104 % of control | dose: 400.0 mg/kg/injection, schedule: Q04DX003 (ip), vehicle: other 107 % of control

CCCCCCCCCCCCCCCCCCN1C(=O)C2C(C1=O)C1(Cl)C(Cl)=C(Cl)C2(Cl)C1(Cl)Cl (stereo unspecified)
inactive: [10] 96 % of control | [11] 93 % of control

Nc1ccc(Cl)cc1C(=O)c1ccccc1
inactive: dose: 25.0 mg/kg/injection, schedule: Q04DX002 (ip), vehicle: DMSO 95 % of control | dose: 50.0 mg/kg/injection, schedule: Q04DX002 (ip), vehicle: DMSO 89 % of control | dose: 100.0 mg/kg/injection, schedule: Q04DX002 (ip), vehicle: DMSO 106 % of control and 88 % of control

O=[N+]([O-])c1nccn1C1OC(CO)C(O)C1O (stereo unspecified)
inactive: dose: 50.0 mg/kg/injection, schedule: Q01DX001 (ip), vehicle: saline 98 % of control | [4] 98 % of control | [5] 102 % of control | [6] 102 % of control

COC(=O)N/N=C/c1ccc(NC(C)=O)cc1
inactive: [12] 95 % of control | [13] 101 % of control | [14] 97 % of control

O=[N+]([O-])c1ccc(N=Cc2ccccc2O)cc1
inactive: dose: 50.0 mg/kg/injection, schedule: Q01DX001 (sc), vehicle: olive oil, sesame oil, peanut oil 98 % of control | dose: 100.0 mg/kg/injection, schedule: Q01DX001 (sc), vehicle: olive oil, sesame oil, peanut oil 98 % of control | dose: 200.0 mg/kg/injection, schedule: Q01DX001 (sc), vehicle: olive oil, sesame oil, peanut oil 98 % of control | dose: 400.0 mg/kg/injection, schedule: Q01DX001 (sc), vehicle: olive oil, sesame oil, peanut oil 108 % of control

S=C(Cc1ccc2ccccc2c1)N1CCOCC1
inactive: dose: 25.0 mg/kg/injection, schedule: Q01DX009 (ip), vehicle: saline sonified 94 % of control | dose: 50.0 mg/kg/injection, schedule: Q01DX009 (ip), vehicle: saline sonified 100 % of control | dose: 100.0 mg/kg/injection, schedule: Q01DX001 (ip), vehicle: saline with Tween-80 105 % of control | dose: 100.0 mg/kg/injection, schedule: Q01DX009 (ip), vehicle: saline sonified 96 % of control

CN(C)c1ccc(C=Nc2ccccc2)cc1
inactive: [7] 98 % of control | [8] 102 % of control | [9] 108 % of control

O=C(OC1CSC1)c1ccc([N+](=O)[O-])cc1
inactive: [12] 95 % of control | [13] 92 % of control | [14] 97 % of control

COC1(OC)CCC2(C)C(CCCC2OS(=O)(=O)c2ccc(C)cc2)C1 (stereo unspecified)
inactive: dose: 100.0 mg/kg/injection, schedule: Q01DX001 (ip), vehicle: carboxymethylcellulose (CMC) 97 % of control | dose: 200.0 mg/kg/injection, schedule: Q01DX001 (ip), vehicle: carboxymethylcellulose (CMC) 108 % of control | dose: 400.0 mg/kg/injection, schedule: Q01DX001 (ip), vehicle: carboxymethylcellulose (CMC) 97 % of control

O=C(N/N=C/c1ccc(O)cc1O)c1ccc(O)cc1
inactive: [1] 92 % of control | [2] 103 % of control | [3] 103 % of control

C=CCOP(=O)(N1CC1CC)N1CC1CC (stereo unspecified)
inactive: dose: 10.0 mg/kg/injection, schedule: Q01DX015 (ip), vehicle: saline 103 % of control | dose: 20.0 mg/kg/injection, schedule: Q01DX015 (ip), vehicle: saline 96 % of control | dose: 40.0 mg/kg/injection, schedule: Q01DX015 (ip), vehicle: saline 102 % of control | dose: 80.0 mg/kg/injection, schedule: Q01DX015 (ip), vehicle: saline 108 % of control

O=C(O)CS(=O)(=O)Cc1ccccc1
inactive: [10] 97 % of control | [11] 90 % of control

O=c1ccnc(SCc2ccccc2)[nH]1
inactive: dose: 100.0 mg/kg/injection, schedule: Q01DX Z (ip), vehicle: methylcellulose (MC) 95 % of control | dose: 200.0 mg/kg/injection, schedule: Q01DX Z (ip), vehicle: methylcellulose (MC) 97 % of control

CCCNC(=O)c1ccc(N)cc1
inactive: [4] 104 % of control | [5] 97 % of control | [6] 97 % of control

CC(=O)Nc1cccc(OC(=O)Nc2ccc(F)c(Cl)c2)c1
inactive: [1] 96 % of control | [2] 89 % of control | [3] 121 % of control

CS(=O)(=O)CCN1C(=O)C2C3CCC(O3)C2C1=O (stereo unspecified)
inactive: dose: 100.0 mg/kg/injection, schedule: Q04DX002 (ip), vehicle: saline with Tween-80 112 % of control | dose: 200.0 mg/kg/injection, schedule: Q04DX002 (ip), vehicle: saline with Tween-80 108 % of control | dose: 400.0 mg/kg/injection, schedule: Q04DX002 (ip), vehicle: saline with Tween-80 97 % of control

COc1cc(C)c([N+](=O)[O-])cc1OC
inactive: [4] 106 % of control | [5] 97 % of control | [6] 101 % of control
